Measurements: patent publication US20110130428A1, “Sublingual Compositions Comprising (2S) - (4E) -N-Methyl-5- (3- (5-Isopropoxypyridin) YL)-4-Penten-2-Amine” (ASTRAZENECA AB, priority 2008, published 2011)
Read-outs that look alike come from different tables or passages of the source.

What was measured:
[1] = Solubility / Biopharmaceutical Classification System (BCS) class; assay type: physicochemical
Excerpt: (§1) Thus, the dissolution and intestinal permeability is not the reason for the observed high intersubject variability in plasma concentrations of Compound A.

[2] = Beagle dogs, cited from earlier work
[3] = tested on: NNR subtypes that characterize the human ganglia; test: Nicotinic function in adrenal chromaffin tissue; assay type: cell-based; conditions: ganglionic NNR subtypes
Excerpt: (§2) It is advantageous that the treatment or prevention of diseases, disorders and conditions occurs without appreciable adverse side effects (e.g., significant increases in blood pressure and heart rate, significant negative effects upon the gastro-intestinal tract, and significant effects upon skeletal muscle). […] Thus, Compound A is capable of treating and/or preventing diseases, disorders and conditions without eliciting significant side effects associated with activity at ganglionic and neuromuscular sites.

[4] = tested on: muscle-type NNRs; test: Nicotinic function in cell preparations expressing muscle-type NNRs; assay type: cell-based; conditions: skeletal muscle NNR
Excerpt: as §2

[5] = dose range 2 to 320 mg, healthy volunteers; cited from earlier work
[6] = Animal study: plasma pharmacokinetics of Compound A and metabolite Compound B after sublingual or oral administration of the Compound A solid composition; conditions: for Cmax, relative difference in exposure sublingual compared to oral / AUC, relative difference in exposure sublingual compared to oral: 100*sublingual value/oral value; for AUC, relative difference in exposure sublingual compared to oral: AUC for Compound A; for AUC(0-t) / AUC / Cmax / Tmax / half-life / concentration at 5 min: male, beagle, dog, plasma, 13 mg; for AUC(0-t): AUC (0-8 h); for AUC(0-t) / AUC / Cmax / Tmax / half-life: Example 6 tablet; for AUC: zero to infinity; for half-life: T½; for concentration at 5 min: plasma concentration at 5 minutes
Procedure: (§3) Two male Beagle dogs weighing 13-15 kg were used in the study. At one occasion the dogs were administered the sublingual composition under the tongue (i.e. as intended) and at the other occasion, after a washout period of 7 days, they were given the sublingual composition orally (i.e. into the stomach by gavage together with 40 ml of water).
(§4) The dogs were fasted overnight and until four hours after dose administration. Water was allowed ad lib until one hour before dosing and after three hours following dosing. To minimize the chance of swallowing during the sublingual study occasion, the dogs were anesthetized by intravenous bolus injection of Diprivan (10 mg/ml, AstraZeneca, Sweden) 0.8-1 ml/kg, followed by intubation, connection to a respiratory ventilator (Servo ventilator 900C, Siemens-Elema AB, Sweden) and capnograph (RespSense, MedAir AB, Sweden) and given additional anesthesia with 1.5% Isofluran (Isoba Vet., Schering-Plough AB, Sweden). The dogs were kept anesthetized for one hour after the administration of the sublingual composition under the tongue. The dogs were not anesthetized during the oral administration occasion.
(§5) Venous blood samples (2 mL) were collected before (0) and after 5, 15, 30, 45 minutes, 1.0, 1.5, 2.0, 3.0, 4.0, 6.0 and 8.0 hours after dosing. The samples were collected into vacuum tubes (BD Vacutainer K2-EDTA, Becton&Dickinson AB, Sweden), placed on ice and centrifuged for 10 minutes (4° C., 1500 g) within 30 minutes after sampling. The plasma was then transferred to 1.8 ml Nunc Cryo tubes (InterMed A/S, Denmark) and frozen (−20° C.) pending analysis.
(§6) The plasma samples (50 μL) were analyzed for Compound A and its metabolite Compound B by a standard LC-MS/MS analytical method. The determinations of the concentration of Compound A and Compound B in plasma was performed by liquid-liquid extraction followed by reversed-phase liquid chromatography and tandem mass spectrometry. Determinations of both Compound A and Compound B were performed in the range 0.8 to 200 nmol/L. Samples outside the range of determination were diluted up to 10 times. Quality control samples at three concentrations were interspersed with the study samples at 2.40, 16.0 and 160 nmol/L. The internal standard used in the assay was Deuterium labeled Compound A (AstraZeneca R&D, Sweden).
(§7) Exposure of animals to Compound A and it's metabolite Compound B expressed as area under the curve from time zero to the last sampling time, AUC(0-8 h), was obtained by means of non compartmental analysis in WinNonlin (version 4.0, Pharsight Corporation, USA). The maximum concentration, Cmax, and time of maximum concentration, Tmax, were direct observations from the plasma concentration versus time data. AUC(0-8 h) was calculated by means of the linear up-log down method. The area under the curve from zero to infinity, AUC, was calculated in a similar manner, with extrapolation from time of the last observed concentration, tlast, to infinity by adding the ratio of Cpred (predicted plasma concentration at tlast) and terminal slope factor. The terminal slope factor and subsequently the terminal half life (T1/2) were estimated in WinNonlin by log linear regression of the terminal phase (4 data points were used) of the plasma concentration time curve.

[7] = Intestinal permeability (fraction of an oral dose absorbed); assay type: in vivo
Excerpt: as §1

[8] = in vivo; conditions: male, beagle, dog, 13 mg; for AUC(0-t): AUC (0-8 h)
Procedure: as §3, §4, §5, §6, §7

[9] = male, beagle, dog, in vivo, 13 mg
Procedure: as §3, §4, §5, §6, §7

[10] = Sublingual, Subject 1, anesthetized dog, 13 mg Compound A
[11] = Sublingual, Subject 2, anesthetized dog, 13 mg Compound A
[12] = po, Oral (gavage), Subject 1, dog, 13 mg Compound A
[13] = po, Oral (gavage), Subject 2, dog, 13 mg Compound A

CN[C@@H](C)C/C=C/c1cncc(OC(C)C)c1 [Compound A, (2S)-(4E)-N-methyl-5-(3-(5-isopropoxypyridin)yl)-4-penten-2-amine]
Biopharmaceutical Classification System (BCS) class [1]: Class I | solubility ([1]; highest dose strength is easily dissolved in 250 ml of aqueous media at all physiological pH values): very good solubility | oral bioavailability ([2]; oral): about 30% | total plasma clearance relative to hepatic blood flow [2]: markedly higher than the hepatic blood flow | ability to elicit nicotinic function in adrenal chromaffin tissue [3]: lack of ability to elicit nicotinic function | ability to elicit nicotinic function in cell preparations expressing muscle-type NNRs [4]: lack of ability to elicit nicotinic function | degree of exposure after oral administration [5]: intersubject variability in the degree of exposure | Cmax, relative difference in exposure sublingual compared to oral ([6]; Subject 1, dog): 740 % difference | AUC, relative difference in exposure sublingual compared to oral ([6]; Subject 1, dog): 550 % difference | Cmax, relative difference in exposure sublingual compared to oral ([6]; Subject 2, dog): 510 % difference | AUC, relative difference in exposure sublingual compared to oral ([6]; Subject 2, dog): 520 % difference | AUC(0-t) [6, 10]: 2000 nM·h | AUC(0-t) [6, 11]: 1500 nM·h | AUC [6, 10]: 2100 nM·h | AUC [6, 11]: 1500 nM·h | Cmax [6, 10]: 1.4 µM | Cmax [6, 11]: 0.61 µM | Tmax [6, 10]: 0.5 h | Tmax [6, 11]: 1 h | half-life [6, 10]: 1.3 h | half-life [6, 11]: 1.4 h | concentration at 5 min ([6]; other: sublingual, 5 minutes after sublingual administration, Subject 1, dog): ~0.2 µM | concentration at 5 min ([6]; other: sublingual, 5 minutes after sublingual administration, Subject 2, dog): ~0.06 µM | AUC(0-t) [6, 12]: 370 nM·h | AUC(0-t) [6, 13]: 280 nM·h | AUC [6, 12]: 380 nM·h | AUC [6, 13]: 290 nM·h | Cmax [6, 12]: 0.19 µM | Cmax [6, 13]: 0.12 µM | Tmax ([6]; po, Oral (gavage), Subject 1, dog, 13 mg (as base) Compound A hydroxybenzoate salt): 0.75 h | Tmax [6, 13]: 1 h | half-life [6, 12]: 1.3 h | half-life [6, 13]: 1.3 h | concentration at 5 min ([6]; po, 5 minutes after oral administration, Subject 1, dog): ~0.002 µM | concentration at 5 min ([6]; po, 5 minutes after oral administration, Subject 2, dog): ~0.0015 µM | intestinal permeability: oral dose absorbed [7]: more than 90%

CC(C)Oc1cncc(/C=C/C[C@H](C)N)c1 [Compound B, (4E)-5-(3-(5-isopropoxypyridin)yl)-4-penten-2-amine]
AUC(0-t) [8]: 510 nM·h | Cmax [8]: 0.099 µM | Tmax [8]: 4 h | AUC(0-t) ([8]; po): 1000 nM·h | Cmax ([8]; po): 0.21 µM | Tmax ([8]; po): 1.5 h | AUC (0-8 h) [9]: 590 nM·h | Cmax [9]: 0.11 µM | Tmax [9]: 6 h | decrease of exposure (Cmax, AUC 0-8 h) following sublingual compared to oral administration of Compound A [9]: 30-70% | AUC (0-8 h) ([9]; po): 1000 nM·h | Cmax ([9]; po): 0.23 µM | Tmax ([9]; po): 1 h
